According to PubChem BioAssay (NCI):
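Each compound was tested at five concentrations against cells in 96-well plates for 48 hours. GI50 marks 50% less growth. TGI denotes the concentration required for complete inhibition of growth.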

Experiments:
Assay in all cases: DTP human tumour cell line panel, 48 h
CAKI-1 renal = tested on: CAKI-1 renal
COLO 205 colon = tested on: COLO 205 colon
HS 578T breast = tested on: HS 578T breast
M14 melanoma = tested on: M14 melanoma
NCI-H23 lung = tested on: NCI-H23 lung
OVCAR-4 ovarian = tested on: OVCAR-4 ovarian
RPMI-8226 leukemia = tested on: RPMI-8226 leukemia
SK-MEL-28 melanoma = tested on: SK-MEL-28 melanoma
SN12C renal = tested on: SN12C renal
SW-620 colon = tested on: SW-620 colon

## CCN(CCCN(C)C)Cc1cc(I)cc(C)c1O
CAKI-1 renal
  GI50: 18.5 µM
  TGI: 39.3 µM
COLO 205 colon
  GI50: 18.9 µM
  TGI: 36.8 µM
HS 578T breast
  GI50: 15.3 µM
  TGI: 33.1 µM
M14 melanoma
  GI50: 16.6 µM
  TGI: 31 µM
NCI-H23 lung
  GI50: 97.2 µM
  TGI: > 100 µM
OVCAR-4 ovarian
  GI50: 48.7 µM
  TGI: > 100 µM
RPMI-8226 leukemia
  GI50: 15.1 µM
  TGI: 34 µM
SK-MEL-28 melanoma
  GI50: 18 µM
  TGI: 36.3 µM
SN12C renal
  GI50: 59.9 µM
  TGI: > 100 µM
SW-620 colon
  GI50: 17.1 µM
  TGI: 31.9 µM

## CC1=CC(=O)C2=C(C)CCC3C(C)C(=O)OC3C12 (stereo unspecified)
CAKI-1 renal
  TGI: > 100 µM
COLO 205 colon
  TGI: > 100 µM
HS 578T breast
  TGI: > 100 µM
M14 melanoma
  TGI: > 100 µM
NCI-H23 lung
  TGI: > 100 µM
OVCAR-4 ovarian
  TGI: > 100 µM
RPMI-8226 leukemia
  TGI: > 100 µM
SK-MEL-28 melanoma
  TGI: > 100 µM
SN12C renal
  TGI: > 100 µM
SW-620 colon
  TGI: > 100 µM

## CC(C)C1=CC(=O)C(C)(C2C(O)CC3(C)C4CC=C5C(CCC(OC6OC(CO)C(O)C(O)C6OC6OC(C)C(O)C(O)C6O)C5(C)C)C4(C)C(=O)CC23C)O1 (stereo unspecified)
CAKI-1 renal
  TGI: > 100 µM
COLO 205 colon
  TGI: > 100 µM
HS 578T breast
  TGI: > 100 µM
M14 melanoma
  TGI: > 100 µM
NCI-H23 lung
  TGI: > 100 µM
OVCAR-4 ovarian
  TGI: > 100 µM
RPMI-8226 leukemia
  TGI: > 100 µM
SK-MEL-28 melanoma
  TGI: > 100 µM
SN12C renal
  TGI: > 100 µM
SW-620 colon
  TGI: > 100 µM

## O=c1[nH]c2ccccc2c2ccccc12
CAKI-1 renal
  GI50: > 100 µM
  TGI: > 100 µM
COLO 205 colon
  GI50: > 100 µM
  TGI: > 100 µM
HS 578T breast
  GI50: > 100 µM
  TGI: > 100 µM
M14 melanoma
  GI50: > 100 µM
  TGI: > 100 µM
NCI-H23 lung
  GI50: > 100 µM
  TGI: > 100 µM
OVCAR-4 ovarian
  GI50: 60.7 µM
  TGI: > 100 µM
RPMI-8226 leukemia
  GI50: > 100 µM
  TGI: > 100 µM
SK-MEL-28 melanoma
  GI50: > 100 µM
  TGI: > 100 µM
SN12C renal
  GI50: > 100 µM
  TGI: > 100 µM
SW-620 colon
  GI50: > 100 µM
  TGI: > 100 µM

## CC(N)C(Cc1ccc(Cl)cc1)c1ccc(Cl)cc1 (stereo unspecified)
CAKI-1 renal
  GI50: 11.8 µM
  TGI: 24.1 µM
COLO 205 colon
  GI50: 1.89 µM
  TGI: 3.97 µM
HS 578T breast
  GI50: 13.8 µM
  TGI: 39.7 µM
M14 melanoma
  GI50: 5.53 µM
  TGI: 18.9 µM
NCI-H23 lung
  GI50: 13.4 µM
  TGI: 27.8 µM
OVCAR-4 ovarian
  GI50: 11.4 µM
  TGI: 25.7 µM
RPMI-8226 leukemia
  GI50: 6.48 µM
  TGI: 22.2 µM
SK-MEL-28 melanoma
  GI50: 3.86 µM
  TGI: 15.9 µM
SN12C renal
  GI50: 11.4 µM
  TGI: 26.7 µM
SW-620 colon
  GI50: 4.46 µM
  TGI: 16.9 µM

## CCCCCCCCCCCCOC1C(CNC(=O)C2OC3OC(C)(C)OC3C2NC(=O)Nc2ccc(CC(=O)OC)cc2)OC2OC(C)(C)OC21 (stereo unspecified)
CAKI-1 renal
  GI50: 47 µM
  TGI: > 100 µM
COLO 205 colon
  GI50: > 72.5 µM
  TGI: > 100 µM
HS 578T breast
  GI50: > 100 µM
  TGI: > 100 µM
M14 melanoma
  GI50: 22.7 µM
  TGI: > 100 µM
NCI-H23 lung
  GI50: > 100 µM
  TGI: > 100 µM
OVCAR-4 ovarian
  GI50: > 100 µM
  TGI: > 100 µM
RPMI-8226 leukemia
  GI50: > 100 µM
  TGI: > 100 µM
SK-MEL-28 melanoma
  GI50: > 100 µM
  TGI: > 100 µM
SN12C renal
  GI50: > 100 µM
  TGI: > 100 µM
SW-620 colon
  GI50: > 100 µM
  TGI: > 100 µM

## Cc1cccc(N(C)C(=O)[C@@H]2[C@H](O)CCN2c2nc(C)cc(C(F)(F)F)c2C#N)c1
CAKI-1 renal
  GI50: 29.1 µM
  TGI: > 100 µM
COLO 205 colon
  GI50: 17.3 µM
  TGI: 34 µM
HS 578T breast
  GI50: 25.7 µM
  TGI: > 100 µM
M14 melanoma
  GI50: 16.3 µM
  TGI: 34.5 µM
NCI-H23 lung
  GI50: 31.2 µM
  TGI: > 100 µM
OVCAR-4 ovarian
  GI50: 18.7 µM
  TGI: > 100 µM
RPMI-8226 leukemia
  GI50: 16.3 µM
  TGI: 41.6 µM
SK-MEL-28 melanoma
  GI50: 24.3 µM
  TGI: > 100 µM
SN12C renal
  GI50: 17.3 µM
  TGI: 50.1 µM
SW-620 colon
  GI50: 37.8 µM
  TGI: > 100 µM

## O=Nc1ccc(O)c(=O)cc1
CAKI-1 renal
  GI50: 0.936 µM
  TGI: 5.8 µM
COLO 205 colon
  GI50: 1.08 µM
  TGI: 3.45 µM
HS 578T breast
  GI50: 5.57 µM
  TGI: > 44.4 µM
M14 melanoma
  GI50: 2.52 µM
  TGI: 7.01 µM
NCI-H23 lung
  GI50: 3.04 µM
  TGI: 12 µM
OVCAR-4 ovarian
  GI50: 1.71 µM
  TGI: 4.83 µM
RPMI-8226 leukemia
  GI50: 1.05 µM
  TGI: 3.97 µM
SK-MEL-28 melanoma
  GI50: 2.26 µM
  TGI: 7.02 µM
SN12C renal
  GI50: 2.95 µM
  TGI: 12.4 µM
SW-620 colon
  GI50: 0.657 µM
  TGI: 2.35 µM

## O=S(=O)(NCCCNc1nccc(-c2c(-c3ccc(O)cc3)nc3sccn23)n1)c1ccc(F)cc1
CAKI-1 renal
  GI50: 2.88 µM
  TGI: > 100 µM
COLO 205 colon
  GI50: 0.0527 µM
  TGI: 2.19 µM
HS 578T breast
  GI50: 2.8 µM
  TGI: 6.99 µM
M14 melanoma
  GI50: 0.064 µM
  TGI: 2.8 µM
NCI-H23 lung
  GI50: 2.24 µM
  TGI: 7.7 µM
OVCAR-4 ovarian
  GI50: 3.36 µM
  TGI: 9.92 µM
RPMI-8226 leukemia
  GI50: 1.58 µM
  TGI: 4.72 µM
SK-MEL-28 melanoma
  GI50: 0.0528 µM
  TGI: 6.23 µM
SN12C renal
  GI50: 1.84 µM
  TGI: > 100 µM
SW-620 colon
  GI50: 3.66 µM
  TGI: > 100 µM

## COc1ccc2c(c1)/C(=C\c1c(-c3cc(OC)ccc3OC)nc3sc(C)cn13)C(=O)N2C
CAKI-1 renal
  GI50: 18.3 µM
  TGI: 86 µM
COLO 205 colon
  GI50: 18.1 µM
  TGI: 44.2 µM
HS 578T breast
  GI50: 48.9 µM
  TGI: > 100 µM
M14 melanoma
  GI50: 26.1 µM
  TGI: 71.4 µM
NCI-H23 lung
  GI50: 38.5 µM
  TGI: > 100 µM
OVCAR-4 ovarian
  GI50: 20.9 µM
  TGI: > 100 µM
RPMI-8226 leukemia
  GI50: 9.13 µM
  TGI: 58.4 µM
SK-MEL-28 melanoma
  GI50: 16 µM
  TGI: 32.3 µM
SN12C renal
  GI50: 24.7 µM
  TGI: > 100 µM
SW-620 colon
  GI50: 42.6 µM
  TGI: > 100 µM

## O=C(CC(Cl)=C(Cl)Cl)Nc1ccccc1
COLO 205 colon
  GI50: > 100 µM
  TGI: > 100 µM
HS 578T breast
  GI50: > 100 µM
  TGI: > 100 µM
M14 melanoma
  GI50: > 100 µM
  TGI: > 100 µM
NCI-H23 lung
  GI50: > 100 µM
  TGI: > 100 µM
OVCAR-4 ovarian
  GI50: > 100 µM
  TGI: > 100 µM
RPMI-8226 leukemia
  GI50: > 100 µM
  TGI: > 100 µM
SK-MEL-28 melanoma
  GI50: > 100 µM
  TGI: > 100 µM
SN12C renal
  GI50: > 100 µM
  TGI: > 100 µM
SW-620 colon
  GI50: > 100 µM
  TGI: > 100 µM

## O=C(Cc1ccc(/C=C/C(=O)c2ncc[nH]2)cc1)Nc1ccc(F)cc1
COLO 205 colon
  GI50: 4.54 µM
  TGI: 10.8 µM
HS 578T breast
  GI50: 23.3 µM
  TGI: > 33.3 µM
M14 melanoma
  GI50: 5.98 µM
  TGI: 17.6 µM
NCI-H23 lung
  GI50: 1.91 µM
  TGI: 9.54 µM
OVCAR-4 ovarian
  GI50: 9.14 µM
  TGI: > 33.3 µM
RPMI-8226 leukemia
  GI50: 1.27 µM
  TGI: 7.46 µM
SK-MEL-28 melanoma
  GI50: 6.26 µM
  TGI: 16.6 µM
SN12C renal
  GI50: 2.93 µM
  TGI: 27.1 µM
SW-620 colon
  GI50: 1.43 µM
  TGI: 6.78 µM

## NS(=O)(=O)c1ccc(Nc2cc(-c3cccc(O)c3)[nH]n2)cc1
CAKI-1 renal
  GI50: > 25 µM
  TGI: > 25 µM
COLO 205 colon
  GI50: > 25 µM
  TGI: > 25 µM
HS 578T breast
  GI50: > 25 µM
  TGI: > 25 µM
M14 melanoma
  GI50: > 25 µM
  TGI: > 25 µM
NCI-H23 lung
  GI50: > 25 µM
  TGI: > 25 µM
OVCAR-4 ovarian
  GI50: 13.5 µM
  TGI: > 25 µM
RPMI-8226 leukemia
  GI50: > 25 µM
  TGI: > 25 µM
SK-MEL-28 melanoma
  GI50: > 25 µM
  TGI: > 25 µM
SN12C renal
  GI50: > 25 µM
  TGI: > 25 µM
SW-620 colon
  GI50: > 25 µM
  TGI: > 25 µM
